Measured values published in article PMC8620908, “Design, Synthesis, In Vitro Anticancer Evaluation and Molecular Modelling Studies of 3,4,5-Trimethoxyphenyl-Based Derivatives as Dual EGFR/HDAC Hybrid Inhibitors” (Pharmaceuticals, 2021).
Values joined by “and” are separate entries in the source; they are usually repeats but may differ in a detail not shown here. Equal entries are not always repeated. “Also recorded” adds a separate entry of the source.

Experiments:
HCT116 = experiment: Antiproliferative MTT assay, HCT116; conditions: Homo sapiens, HCT-116, read-out: Antiproliferative Activity IC50 ± SEM, HCT116
HepG2 cancer cell line [1] = experiment: Flow cytometric cell cycle analysis; type: cell-based
HDAC6 [2] = molecular target: T1, HDAC6 (Homo sapiens, UniProt Q9UBN7); experiment: In vitro HDAC inhibition assay, HDAC6
T1 sequence (Q9UBN7 1-1215): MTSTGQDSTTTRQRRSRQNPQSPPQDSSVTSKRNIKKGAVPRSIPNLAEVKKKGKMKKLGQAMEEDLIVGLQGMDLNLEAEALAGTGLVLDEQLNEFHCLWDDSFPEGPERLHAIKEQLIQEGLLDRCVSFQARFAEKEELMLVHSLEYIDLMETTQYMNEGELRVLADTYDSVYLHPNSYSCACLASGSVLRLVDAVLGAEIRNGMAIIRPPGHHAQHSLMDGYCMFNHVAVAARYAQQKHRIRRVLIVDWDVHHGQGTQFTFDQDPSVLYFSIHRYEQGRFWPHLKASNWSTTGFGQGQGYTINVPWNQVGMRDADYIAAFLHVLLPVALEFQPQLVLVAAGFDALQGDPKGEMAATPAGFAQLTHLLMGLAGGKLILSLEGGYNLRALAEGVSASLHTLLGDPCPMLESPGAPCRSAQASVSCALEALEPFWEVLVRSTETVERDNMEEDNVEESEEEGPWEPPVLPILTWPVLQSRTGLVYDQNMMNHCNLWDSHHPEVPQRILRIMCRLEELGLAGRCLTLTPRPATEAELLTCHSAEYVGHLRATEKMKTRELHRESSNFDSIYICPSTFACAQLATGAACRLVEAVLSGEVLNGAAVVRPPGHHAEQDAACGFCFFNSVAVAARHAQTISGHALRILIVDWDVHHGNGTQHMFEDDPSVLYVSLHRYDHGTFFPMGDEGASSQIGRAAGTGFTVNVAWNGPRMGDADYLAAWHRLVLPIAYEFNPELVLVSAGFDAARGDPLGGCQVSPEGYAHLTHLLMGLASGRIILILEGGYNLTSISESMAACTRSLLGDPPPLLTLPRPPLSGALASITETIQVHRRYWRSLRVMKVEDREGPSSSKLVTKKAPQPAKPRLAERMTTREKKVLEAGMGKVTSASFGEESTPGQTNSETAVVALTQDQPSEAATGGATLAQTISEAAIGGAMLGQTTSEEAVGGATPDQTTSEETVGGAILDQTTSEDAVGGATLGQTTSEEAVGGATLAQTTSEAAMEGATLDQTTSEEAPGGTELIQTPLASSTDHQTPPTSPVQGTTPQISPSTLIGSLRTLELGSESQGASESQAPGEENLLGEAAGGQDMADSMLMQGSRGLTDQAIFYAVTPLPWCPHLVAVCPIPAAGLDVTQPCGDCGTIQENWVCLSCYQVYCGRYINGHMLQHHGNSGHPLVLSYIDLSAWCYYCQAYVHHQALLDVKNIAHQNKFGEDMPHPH

HDAC8 = molecular target: T2, HDAC8 (Homo sapiens, UniProt Q9BY41); experiment: In vitro HDAC inhibition assay, HDAC8
T2 sequence (Q9BY41 1-377): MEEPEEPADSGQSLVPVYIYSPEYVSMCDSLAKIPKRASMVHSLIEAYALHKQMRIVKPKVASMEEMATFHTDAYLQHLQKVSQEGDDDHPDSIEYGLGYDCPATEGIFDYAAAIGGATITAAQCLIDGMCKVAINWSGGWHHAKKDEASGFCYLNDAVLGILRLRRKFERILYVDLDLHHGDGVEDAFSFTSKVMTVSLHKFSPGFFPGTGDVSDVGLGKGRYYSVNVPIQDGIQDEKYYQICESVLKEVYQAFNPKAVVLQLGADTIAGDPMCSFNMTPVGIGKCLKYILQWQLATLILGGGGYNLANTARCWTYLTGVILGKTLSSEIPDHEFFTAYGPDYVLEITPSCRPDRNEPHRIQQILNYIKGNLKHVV

Caspase-3 = Caspase-3 level assay in HepG2 cancer cell line; type: cell-based, human
HDAC1 = HDAC1 (Homo sapiens, UniProt Q13547); experiment: In vitro HDAC inhibition assay, HDAC1
HepG2 = experiment: Antiproliferative MTT assay, HepG2; conditions: Homo sapiens, HepG2, read-out: Antiproliferative Activity IC50 ± SEM, HepG2
HDAC2 = HDAC2 (Homo sapiens, UniProt Q92769); experiment: In vitro HDAC inhibition assay, HDAC2
Bcl-2 = Bcl-2 level assay in HepG2 cancer cell line; type: cell-based; conditions: HepG2, versus control
Bax = Bax level assay in HepG2 cancer cell line; type: cell-based
Caspase-8 = Caspase-8 level assay in HepG2 cancer cell line; type: cell-based, human
HDAC4 = HDAC4 (Homo sapiens, UniProt P56524); experiment: In vitro HDAC inhibition assay, HDAC4
HDAC6 [3] = experiment: Western blot assay, HDAC6 in HepG2; type: cell-based; conditions: HepG2, 4b used at its IC50 of 0.536 µM
Method: (§1) Western blot assay was carried out according to the previously reported protocol.

HepG2 cancer cell line [4] = experiment: Cell apoptosis assay, Annexin V/PI flow cytometry; type: cell-based
Method: Apoptosis was determined by flow cytometry based on the Annexin-V-fluoresce in isothiocyanate (FITC) and propidium iodide (PI) staining kit (BD Pharmingen, San Diego, CA, USA). See Section 4.2.5 in Supplementary Materials.
4.2.5. Cell apoptosis assay
Apoptosis was determined by flow cytometry based on the Annexin-V-fluoresce in isothiocyanate (FITC) and propidium iodide (PI) staining kit (BD Pharmingen, San Diego, USA). Apoptotic cells were defined as Annexin-V-positive. Cells were grown to approximately ∼70% confluence and exposed to different concentrations of compounds (0, 2, 4, 6 and8 μmol/L) for 24 h. Treated cells were trypsinized, washed twice with PBS and transferred into micro centrifuge tubes for centrifugation at1000 rpm for 5 min at room temperature, then resuspended in binding buffer, 5 μL of FITC and PI were added to per eppendorf tube, cells were vortexed, incubated for 15 min at room temperature in dark. Subsequently, cells were analyzed by flow cytometry (Becton Dickinson, Franklin Lakes, USA).
4.3. Statistical analysis
Computerized GraphPad Prism software was used to statistically analyzed data using one-way ANOVA test followed by Tukey’s as post ANOVA for multiple comparison at P ≤.05. Data were presented as mean ± SEM. […]

A549 = experiment: Antiproliferative MTT assay, A549; conditions: Homo sapiens, A549, read-out: Antiproliferative Activity IC50 ± SEM, A549
MCF-7 = experiment: Antiproliferative MTT assay, MCF-7; conditions: Homo sapiens, MCF7, read-out: Antiproliferative Activity IC50 ± SEM, MCF-7
EGFR [5] = experiment: Western blot assay, EGFR in HepG2; type: cell-based; conditions: HepG2, 4b used at its IC50 of 0.536 µM
Method: as §1

EGFR [6] = molecular target: EGFR (Homo sapiens, UniProt P00533); experiment: EGFR-TK inhibition, cell-free assay; type: biochemical
EGFR (Homo sapiens, UniProt P00533), sequence (P00533 25-1210): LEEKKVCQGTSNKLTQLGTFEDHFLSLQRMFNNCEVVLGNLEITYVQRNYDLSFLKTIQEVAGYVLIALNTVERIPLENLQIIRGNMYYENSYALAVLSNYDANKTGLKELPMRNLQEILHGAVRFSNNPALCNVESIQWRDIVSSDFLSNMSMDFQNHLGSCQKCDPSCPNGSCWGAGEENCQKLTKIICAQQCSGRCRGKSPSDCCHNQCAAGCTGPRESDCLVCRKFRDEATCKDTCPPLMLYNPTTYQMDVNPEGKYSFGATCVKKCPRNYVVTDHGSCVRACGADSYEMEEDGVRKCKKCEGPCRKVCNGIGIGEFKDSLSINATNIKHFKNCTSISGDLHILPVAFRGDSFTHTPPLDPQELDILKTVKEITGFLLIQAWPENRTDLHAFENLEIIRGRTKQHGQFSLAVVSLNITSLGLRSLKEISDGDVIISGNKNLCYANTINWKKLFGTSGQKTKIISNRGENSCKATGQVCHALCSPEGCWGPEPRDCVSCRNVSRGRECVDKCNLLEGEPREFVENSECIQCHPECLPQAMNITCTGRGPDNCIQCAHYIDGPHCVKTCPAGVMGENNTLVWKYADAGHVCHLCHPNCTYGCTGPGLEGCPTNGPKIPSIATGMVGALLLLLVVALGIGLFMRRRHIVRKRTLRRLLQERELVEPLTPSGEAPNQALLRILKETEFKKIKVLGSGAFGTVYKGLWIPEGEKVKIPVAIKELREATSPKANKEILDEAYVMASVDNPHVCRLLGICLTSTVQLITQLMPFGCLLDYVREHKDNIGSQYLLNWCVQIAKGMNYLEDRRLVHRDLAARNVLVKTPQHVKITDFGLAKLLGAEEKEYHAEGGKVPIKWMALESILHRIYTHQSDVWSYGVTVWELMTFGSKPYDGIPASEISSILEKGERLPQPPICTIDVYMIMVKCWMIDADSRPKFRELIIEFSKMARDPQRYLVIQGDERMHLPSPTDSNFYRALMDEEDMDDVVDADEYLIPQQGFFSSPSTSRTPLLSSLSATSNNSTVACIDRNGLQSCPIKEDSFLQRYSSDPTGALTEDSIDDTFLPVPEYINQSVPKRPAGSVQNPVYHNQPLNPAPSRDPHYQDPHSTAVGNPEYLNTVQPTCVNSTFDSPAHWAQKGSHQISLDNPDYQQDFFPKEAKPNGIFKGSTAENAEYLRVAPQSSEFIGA

HDAC4, sequence (P56524 whole entry): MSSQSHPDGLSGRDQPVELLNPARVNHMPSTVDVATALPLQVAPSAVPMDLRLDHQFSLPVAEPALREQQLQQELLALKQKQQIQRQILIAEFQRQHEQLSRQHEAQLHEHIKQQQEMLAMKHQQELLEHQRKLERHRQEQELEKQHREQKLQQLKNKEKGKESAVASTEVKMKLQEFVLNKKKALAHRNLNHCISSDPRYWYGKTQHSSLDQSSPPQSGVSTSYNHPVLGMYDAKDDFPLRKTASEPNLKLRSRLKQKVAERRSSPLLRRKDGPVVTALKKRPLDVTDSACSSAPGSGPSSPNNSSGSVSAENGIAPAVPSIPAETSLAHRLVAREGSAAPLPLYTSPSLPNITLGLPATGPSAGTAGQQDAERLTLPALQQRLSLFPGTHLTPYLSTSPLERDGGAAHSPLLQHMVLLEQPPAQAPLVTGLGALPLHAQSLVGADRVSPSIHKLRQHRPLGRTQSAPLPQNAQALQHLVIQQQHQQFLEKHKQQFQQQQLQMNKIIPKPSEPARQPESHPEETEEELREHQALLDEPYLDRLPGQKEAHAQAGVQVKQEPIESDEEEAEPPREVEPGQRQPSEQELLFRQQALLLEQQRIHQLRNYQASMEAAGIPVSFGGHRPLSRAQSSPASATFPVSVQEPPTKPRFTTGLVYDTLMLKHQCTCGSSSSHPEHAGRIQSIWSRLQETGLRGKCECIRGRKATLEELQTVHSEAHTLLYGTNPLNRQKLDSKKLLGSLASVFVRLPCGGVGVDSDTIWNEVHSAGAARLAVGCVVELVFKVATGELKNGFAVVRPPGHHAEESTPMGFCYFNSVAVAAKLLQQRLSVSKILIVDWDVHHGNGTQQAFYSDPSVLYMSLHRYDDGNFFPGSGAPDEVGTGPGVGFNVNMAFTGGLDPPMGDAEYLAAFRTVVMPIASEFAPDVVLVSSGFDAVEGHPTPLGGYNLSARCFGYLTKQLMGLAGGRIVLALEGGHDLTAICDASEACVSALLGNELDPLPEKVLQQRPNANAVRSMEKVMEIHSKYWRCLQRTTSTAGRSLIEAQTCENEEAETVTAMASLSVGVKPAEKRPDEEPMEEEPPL
HDAC2, sequence (Q92769 whole entry): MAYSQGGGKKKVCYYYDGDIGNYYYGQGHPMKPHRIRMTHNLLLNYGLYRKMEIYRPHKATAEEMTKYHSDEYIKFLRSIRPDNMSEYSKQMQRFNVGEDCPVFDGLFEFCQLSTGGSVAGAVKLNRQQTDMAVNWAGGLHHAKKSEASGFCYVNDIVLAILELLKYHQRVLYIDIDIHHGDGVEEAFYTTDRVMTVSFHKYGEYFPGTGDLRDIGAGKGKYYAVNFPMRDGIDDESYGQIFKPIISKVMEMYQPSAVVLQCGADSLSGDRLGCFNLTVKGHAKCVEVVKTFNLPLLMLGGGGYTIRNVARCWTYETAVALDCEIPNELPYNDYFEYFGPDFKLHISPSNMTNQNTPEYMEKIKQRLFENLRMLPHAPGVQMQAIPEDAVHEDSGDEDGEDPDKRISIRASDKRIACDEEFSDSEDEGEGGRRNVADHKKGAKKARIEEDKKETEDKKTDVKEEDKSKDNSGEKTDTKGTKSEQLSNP
HDAC1, sequence (Q13547 whole entry): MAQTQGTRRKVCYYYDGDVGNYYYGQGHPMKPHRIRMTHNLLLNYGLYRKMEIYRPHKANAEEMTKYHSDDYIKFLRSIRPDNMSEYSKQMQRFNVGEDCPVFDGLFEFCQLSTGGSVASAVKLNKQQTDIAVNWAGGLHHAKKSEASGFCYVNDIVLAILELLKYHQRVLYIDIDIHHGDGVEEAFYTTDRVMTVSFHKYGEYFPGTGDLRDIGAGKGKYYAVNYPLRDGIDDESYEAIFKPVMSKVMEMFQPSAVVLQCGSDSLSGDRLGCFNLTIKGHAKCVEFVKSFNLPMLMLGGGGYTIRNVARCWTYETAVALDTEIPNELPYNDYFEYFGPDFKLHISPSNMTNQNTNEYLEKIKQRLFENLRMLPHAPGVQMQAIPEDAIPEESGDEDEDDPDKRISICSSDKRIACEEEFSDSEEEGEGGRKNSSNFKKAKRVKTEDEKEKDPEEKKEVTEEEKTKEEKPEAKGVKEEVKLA

- IC50 (HCT116): 1210 ± 70 nM
- IC50 (HDAC6 [2]): 60 nM
- IC50 (HDAC8): 2260 nM
- IC50 (HDAC1): 148 nM
- IC50 (HepG2): 536 ± 30 nM
- IC50 (HDAC2): 168 nM
- IC50 (HDAC4): 5850 nM
- IC50 (A549): 797 ± 40 nM
- IC50 (MCF-7): 621 ± 30 nM
- IC50 (EGFR [6]): 63 ± 2 nM
Structure (SMILES): COc1cc(/C=C/C(=O)c2ccc(OCCCCCC(=O)NO)cc2)cc(OC)c1OC [4b, (E)-N-Hydroxy-6-(4-(3-(3,4,5-Trimethoxyphenyl)Acryloyl)Phenoxy) Hexanamide]
- Comment (cell cycle arrest) (HepG2 cancer cell line [1]): cell cycle arrest at G1/S phase; also recorded: cell growth arrest at G1/S
- %Pre-G1 (HepG2 cancer cell line [1]; control 2.16): 47.21%
- %G2/M (HepG2 cancer cell line [1]; control 20.45): 7.85%
- %S (HepG2 cancer cell line [1]; control 36.58): 39.11%
- %G0–G1 (HepG2 cancer cell line [1]; control 42.97): 53.04%
- Caspase-3 Conc (Caspase-3): 483.2 pg/mL and 483.2 ± 14.72 pg/mL
- Bcl-2 Fold Change (Bcl-2): 0.42 fold
- Bax Fold Change (Bax; HepG2, versus control): 3.75 fold
- Bax Conc (Bax; HepG2 cancer cell line): 398.9 ± 14.3 pg/mL
- Caspase-8 Fold Change (Caspase-8; HepG2, versus control): 3.15 fold
- Caspase-8 Conc (Caspase-8; HepG2 cancer cell line): 1.078 ng/mL and 1.078 ± 0.046 ng/mL
- HDAC6 expression (Western blot) (HDAC6 [3]): decrease
- Apoptosis Late (HepG2 cancer cell line [4]; control 0.12): 24.67
- percentage of cell apoptosis (late; upper right quadrant Annexin V/PI) (HepG2 cancer cell line [4]; control 0.12%): 24.67%
- Apoptosis Early (HepG2 cancer cell line [4]; control 0.34): 9.33
- Necrosis (HepG2 cancer cell line [4]; control 1.7): 13.21
- Apoptosis Total (HepG2 cancer cell line [4]; control 2.16): 47.21
- EGFR expression (Western blot) (EGFR [5]): decrease
